Assay results published in US20240425808A1, “A METHOD FOR RAPID GENERATION OF 3D ORGANOTYPIC CELL CLUSTERS” (THE TRUSTEES OF INDIANA UNIVERSITY, priority 2022, published 2024).

Columns and labels:
Assay type in all cases: cell-based, human
TNF-α = assay: ELISA analysis of TNF-α in APCC culture supernatants; conditions: n=3
Protocol: (§1) The levels of TNF-α and IFN-γ were elevated in the APCCs treated with anti-PD1. […] (FIG. 4B).
(§2) Cabozantinib (SelleckChem) was added at 10 μM to the APCCs.
(§3) To perform cytokine analysis on the APCCs and 2D tumor cultures, 50 μL supernatants were pipetted out of the culture vessel and centrifuged at 10,000 g for 10 minutes to remove cell debris. The supernatants were then analyzed by human TNF-α or IFN-γ kits (Tribioscience).

[1] = tested on: TNF-α gene expression in CD4/CD8+ T cells; assay: qRT-PCR of TNF-α expression in CD4/CD8+ T cells isolated from APCCs; conditions: n=3
Protocol: as §2
(§4) For qRT-PCR analysis of the CD15+ cells and CD4/8+ T cells, CD15+ cells or CD4/8+ T cells were pre-labeled by CD15 or CD4-and-CD8 (1:1) magnetic beads for 15 minutes at 4° C. respectively before mixed with other tumor cells for acoustic assembly. The CD15+ cells or CD4/8+ T cells with the labeling beads were then assembled into APCCs. To analyze their gene expression profiles, the APCCs were digested by with cell recovery solution (Corning), and input onto MACS columns (Miltenyi) for positive magnetic separation to isolate pure CD15+ cells or T cells (CD4+ or CD8+). The purified CD15+ cells or CD4/8+ T cells were then lysed for RNA extraction by RNeasy Mini Kit (Qiagen), reverse transcribed to cDNA by High-Capacity cDNA Reverse Transcription Kit (Applied Biosystems), and analyzed using corresponding primer pairs (Table 2) and SYBR Green PCR Master Mix (Applied Biosystems). The samples were run on a StepOne Real Time PCR machine (Applied Biosystems) to quantify signals. The results were analyzed using AACt method for fold change analysis.

[2] = tested on: IFN-γ gene expression in CD4/CD8+ T cells; assay: qRT-PCR of IFN-γ expression in CD4/CD8+ T cells isolated from APCCs; conditions: n=3
Protocol: as §2, §4

IFN-γ = assay: ELISA analysis of IFN-γ in APCC culture supernatants; conditions: n=3
Protocol: as §1, §2, §3

[3] = tested on: tumor cells within RCC derived APCCs; assay: Tumor cell death within APCCs by time-lapse imaging; conditions: 24-hour time lapse, anti-PD1 5 μg/mL
Protocol: To evaluate the preservation of MDSC viability inside APCCs, initial tests were performed with renal cell carcinoma (RCC) primary tumors from patients. For MDSC study, the CD15+ cells were first isolated from dissociated patient tumor cells via magnetic microbeads, which consist of tumor infiltrating neutrophils including immunosuppressive polymorphonuclear myeloid derived suppressor cells (PMN-MDSCs). The CD15+ cells were pre-labelled with DiL membrane dyes (shown as yellow). T cells were isolated via a 1:1 mixture of CD4 and CD8 microbeads and pre-labeled the T cells with DiO membrane dyes. The CD15+, CD4+, CD8+ depleted dissociated tumor cells were labeled with the blue CMAC cell tracker dye. Membrane impermeable cell nucleus staining NucRed dead 647 was added to indicate cell death. The cell death of the CD15+ cells was calculated by analyzing co-localization of Dil labeled MDSCs and NucRed cell death indicator dye over time-lapse imaging (FIG. 2A).
MDSC-targeting drugs alone and/or in combination with ICIs. […] The tumor cell death over a 24-hour time lapse was observed. […]
Digested tumor cells were equally divided into 3 tubes. […] Before acoustic assembly, 1 drop of NucRed Dead 647 ReadyProbes (Invitrogen) was added to 1 milliter of cell suspensions and left in medium to visualize cell death over time. […]

[4] = APCCs without CD15+ cells, 24 hours post-treatment
[5] = T cells isolated from APCCs 24 hours post-treatment

Pembrolizumab [anti-PD1]
TNF-α level in culture supernatant, APCCs without CD15+ cells (TNF-α; APCCs without CD15+ cells): further elevated | TNF-α level in culture supernatant (TNF-α; RCC APCCs, vs control): elevated | TNF-α gene expression in CD4/CD8+ T cells, APCCs without CD15+ cells [1, 4]: highest | TNF-α gene expression in CD4/CD8+ T cells [1, 5]: enhanced | IFN-γ gene expression in CD4/CD8+ T cells, APCCs without CD15+ cells [2, 4]: highest | IFN-γ gene expression in CD4/CD8+ T cells [2, 5]: enhanced | IFN-γ level in culture supernatant, APCCs without CD15+ cells (IFN-γ; APCCs without CD15+ cells): further elevated | IFN-γ level in culture supernatant (IFN-γ; RCC APCCs, vs control): elevated | increase in tumor cell death as compared to untreated control ([3]; APCCs from 3 RCC patient primary tumors, Cabozantinib 10 μM): about 17.0%±9.4% | increase in tumor cell death as compared to untreated control, APCCs without CD15+ cells ([3]; APCCs without CD15+ cells (MDSCs removal)): about 40.9%±9.4%
